# Laboratory results published in patent US10375956B2, “Herbicidally active 2-(substituted-phenyl)-cyclopentane-1,3-dione compounds and derivatives thereof” (Syngenta Limited, priority 2013, dated 2019).
# Experiments:
# Assay in all cases: Test 2 glasshouse assay (IF50 formulation, X-77), post-emergence herbicidal activity
# Assay type in all cases: in vivo
# [1] = tested on: Glycine max (GLXMA, soybean); details: 360 h, 15 DAA, visual score, read-out: Post-emergence herbicidal activity (percentage phytotoxicity) GLXMA; for plant injury at 30 g/ha: application rate 30 g/ha; for plant injury at 250 g/ha: application rate 250 g/ha
# Method: (§1) Seeds of a variety of monocotyledonous and dicotyledonous test plants are sown in standard soil in pots. The plants are cultivated for one day (for pre-emergence) or for about 12 days (for post-emergence) under controlled conditions in a glasshouse (warm climate species at 24/18° C., cool climate species at 20/16° C., both at day/night; 16 hours light; 65% humidity).
# (§2) An “instant formulation”, known as the “IF50”, containing 50 g/liter (i.e. 5% w/v) of the “technical” (i.e. unformulated) active ingredient is prepared by dissolving the active ingredient in a mixture of organic solvents and emulsifier, details of which are provided in the Table below. This IF50 is then mixed with a small, variable amount of acetone to aid dissolution, before addition of a 0.2% v/v aqueous solution of the adjuvant X-77 (which is a mixture of alkyl aryl polyoxyethylene glycols and free fatty acids in isopropanol, CAS Registry number 11097-66-8), as the aqueous diluent, to form an aqueous spray solution which contains a predetermined concentration of the active ingredient (which varies depending on the application rate of the active ingredient to the plants) and 0.2% v/v of the adjuvant X-77. This aqueous spray solution is then sprayed onto the plants, after one day's cultivation (for pre-emergence), or after about 12 days' cultivation (range=10-13 days) (for post-emergence).
# (§3) The test plants are then grown on, in a glasshouse (greenhouse) under controlled conditions (warm climate species at 24/18° C., cool climate species at 20/16° C., both at day/night; 16 hours light; 65% humidity) and are watered twice daily. 15 days after application of the test herbicide (15DAA) (for post-emergence), and 20 days after application of the test herbicide (20DAA) (for pre-emergence), the test plants are evaluated visually, and an assessed percentage phytotoxicity score is given for each herbicidal application on each plant species (with 100%=total damage to plant; 0%=no damage to plant).
# (§4) Cool climate crop plants: Triticum aestivum (TRZAW, winter wheat), Brassica napus (BRSNN, rape, also called oilseed rape or rapeseed), Beta vulgaris (BEAVA, sugarbeet). Warm climate crop plants: Glycine max (GLXMA, soybean).
# [2] = tested on: Brassica napus (BRSNN, rape); details: 360 h, 15 DAA, visual score, read-out: Post-emergence herbicidal activity (percentage phytotoxicity) BRSNN; for plant injury at 30 g/ha: application rate 30 g/ha; for plant injury at 250 g/ha: application rate 250 g/ha
# Method: as §1, §2, §3, §4
# [3] = tested on: Triticum aestivum (TRZAW, winter wheat); details: 360 h, 15 DAA, visual score, read-out: Post-emergence herbicidal activity (percentage phytotoxicity) TRZAW; for plant injury at 30 g/ha: application rate 30 g/ha; for plant injury at 250 g/ha: application rate 250 g/ha
# Method: as §1, §2, §3, §4
# [4] = tested on: Beta vulgaris (BEAVA, sugarbeet); details: 360 h, 15 DAA, visual score, read-out: Post-emergence herbicidal activity (percentage phytotoxicity) BEAVA; for plant injury at 30 g/ha: application rate 30 g/ha; for plant injury at 250 g/ha: application rate 250 g/ha
# Method: as §1, §2, §3, §4
# Avena fatua (AVEFA) = details: 360 h, 15 DAA, visual score, read-out: Post-emergence herbicidal activity (percentage phytotoxicity) AVEFA; for pest or weed control at 30 g/ha: application rate 30 g/ha; for pest or weed control at 250 g/ha: application rate 250 g/ha
# Method: as §1, §2, §3
# (§5) Cool climate (“cool season”) grassy monocotyledonous weeds: Alopecurus myosuroides (ALOMY), Avena fatua (AVEFA), Lolium perenne (LOLPE).
# [5] = tested on: Alopecurus myosuroides (ALOMY); details: 360 h, 15 DAA, visual score, read-out: Post-emergence herbicidal activity (percentage phytotoxicity) ALOMY; for pest or weed control at 30 g/ha: application rate 30 g/ha; for pest or weed control at 250 g/ha: application rate 250 g/ha
# Method: as §1, §2, §3, §5
# Lolium perenne (LOLPE) = details: 360 h, 15 DAA, visual score, read-out: Post-emergence herbicidal activity (percentage phytotoxicity) LOLPE; for pest or weed control at 30 g/ha: application rate 30 g/ha; for pest or weed control at 250 g/ha: application rate 250 g/ha
# Method: as §1, §2, §3, §5
# [6] = tested on: Echinochloa crus-galli (ECHCG); details: 360 h, 15 DAA, visual score, read-out: Post-emergence herbicidal activity (percentage phytotoxicity) ECHCG; for pest or weed control at 30 g/ha: application rate 30 g/ha; for pest or weed control at 250 g/ha: application rate 250 g/ha
# Method: as §1, §2, §3
# (§6) Warm climate (“warm season”) grassy monocotyledonous weeds: Setaria faberi (SETFA), Panicum miliaceum (PANMI), Sorghum vulgare Pers. (SORVU) (or Sorghum bicolor (L) Moench ssp. Bicolor), Digitaria sanguinalis (DIGSA), Echinochloa crus-galli (ECHCG), and Brachiaria plantaginea (BRAPL).
# Setaria faberi (SETFA) = details: 360 h, 15 DAA, visual score, read-out: Post-emergence herbicidal activity (percentage phytotoxicity) SETFA; for pest or weed control at 30 g/ha: application rate 30 g/ha; for pest or weed control at 250 g/ha: application rate 250 g/ha
# Method: as §1, §2, §3, §6
# [7] = tested on: Sorghum vulgare Pers. (SORVU); details: Sorghum bicolor, 360 h, 15 DAA, visual score, read-out: Post-emergence herbicidal activity (percentage phytotoxicity) SORVU; for pest or weed control at 30 g/ha: application rate 30 g/ha; for pest or weed control at 250 g/ha: application rate 250 g/ha
# Method: as §1, §2, §3, §6
# [8] = tested on: Digitaria sanguinalis (DIGSA); details: 360 h, 15 DAA, visual score, read-out: Post-emergence herbicidal activity (percentage phytotoxicity) DIGSA; for pest or weed control at 30 g/ha: application rate 30 g/ha; for pest or weed control at 250 g/ha: application rate 250 g/ha
# Method: as §1, §2, §3, §6
# [9] = tested on: Panicum miliaceum (PANMI); details: 360 h, 15 DAA, visual score, read-out: Post-emergence herbicidal activity (percentage phytotoxicity) PANMI; for pest or weed control at 30 g/ha: application rate 30 g/ha; for pest or weed control at 250 g/ha: application rate 250 g/ha
# Method: as §1, §2, §3, §6
# [10] = tested on: Brachiaria plantaginea (BRAPL); details: Urochloa plantaginea, 360 h, 15 DAA, visual score, read-out: Post-emergence herbicidal activity (percentage phytotoxicity) BRAPL; for pest or weed control at 30 g/ha: application rate 30 g/ha; for pest or weed control at 250 g/ha: application rate 250 g/ha
# Method: as §1, §2, §3, §6
SMILES,plant injury at 30 g/ha [1] [%],plant injury at 250 g/ha [1] [%],plant injury at 30 g/ha [2] [%],plant injury at 250 g/ha [2] [%],plant injury at 30 g/ha [3] [%],plant injury at 250 g/ha [3] [%],plant injury at 30 g/ha [4] [%],plant injury at 250 g/ha [4] [%],pest or weed control at 30 g/ha (Avena fatua (AVEFA)) [%],pest or weed control at 250 g/ha (Avena fatua (AVEFA)) [%],pest or weed control at 30 g/ha [5] [%],pest or weed control at 250 g/ha [5] [%],pest or weed control at 30 g/ha (Lolium perenne (LOLPE)) [%],pest or weed control at 250 g/ha (Lolium perenne (LOLPE)) [%],pest or weed control at 30 g/ha [6] [%],pest or weed control at 250 g/ha [6] [%],pest or weed control at 30 g/ha (Setaria faberi (SETFA)) [%],pest or weed control at 250 g/ha (Setaria faberi (SETFA)) [%],pest or weed control at 30 g/ha [7] [%],pest or weed control at 250 g/ha [7] [%],also measured
C#CCC1CC(=O)C(c2c(C)cc(-c3ccc(Cl)cn3)cc2C)C1=O (stereo not drawn) [Compound A2],10,20,50,80,70,90,40,50,60,90,20,100,30,90,100,100,100,100,100,100,pest or weed control at 30 g/ha [8]: 100%; pest or weed control at 250 g/ha [8]: 100%; pest or weed control at 30 g/ha [9]: 100%; pest or weed control at 250 g/ha [9]: 100%; pest or weed control at 30 g/ha [10]: 100%; pest or weed control at 250 g/ha [10]: 100%
C#CCC1CC(=O)C(c2c(C)cc(-c3ncc(Cl)cc3F)cc2C)C1=O (stereo not drawn) [Compound A3],20,70,40,70,80,90,40,70,40,100,80,100,30,90,100,100,100,100,100,100,pest or weed control at 30 g/ha [8]: 100%; pest or weed control at 250 g/ha [8]: 100%; pest or weed control at 30 g/ha [9]: 100%; pest or weed control at 250 g/ha [9]: 100%; pest or weed control at 30 g/ha [10]: 80%; pest or weed control at 250 g/ha [10]: 100%
C#CCC1CC(=O)C(c2c(Cl)cc(-c3ccc(F)cc3)cc2OC)C1=O (stereo not drawn) [Compound A7],0,20,60,80,50,90,20,70,20,100,10,100,30,80,100,100,90,100,100,100,pest or weed control at 30 g/ha [8]: 100%; pest or weed control at 250 g/ha [8]: 100%; pest or weed control at 30 g/ha [9]: 100%; pest or weed control at 250 g/ha [9]: 100%; pest or weed control at 30 g/ha [10]: 100%; pest or weed control at 250 g/ha [10]: 100%
